From patent US20250361230A1, “LATS Inhibitors and Uses Thereof” (The USA, as Represented by the Secretary, Dept. of Heath …, priority 2022, published 2025) come the findings set out here.

As usually defined, the IC50 is the midpoint of a concentration-inhibition curve.

Common to all, as to assay type: biochemical
In experiment [1] the target is T1, LATS1 (Homo sapiens, UniProt O95835).
T1 sequence (O95835 1-1130): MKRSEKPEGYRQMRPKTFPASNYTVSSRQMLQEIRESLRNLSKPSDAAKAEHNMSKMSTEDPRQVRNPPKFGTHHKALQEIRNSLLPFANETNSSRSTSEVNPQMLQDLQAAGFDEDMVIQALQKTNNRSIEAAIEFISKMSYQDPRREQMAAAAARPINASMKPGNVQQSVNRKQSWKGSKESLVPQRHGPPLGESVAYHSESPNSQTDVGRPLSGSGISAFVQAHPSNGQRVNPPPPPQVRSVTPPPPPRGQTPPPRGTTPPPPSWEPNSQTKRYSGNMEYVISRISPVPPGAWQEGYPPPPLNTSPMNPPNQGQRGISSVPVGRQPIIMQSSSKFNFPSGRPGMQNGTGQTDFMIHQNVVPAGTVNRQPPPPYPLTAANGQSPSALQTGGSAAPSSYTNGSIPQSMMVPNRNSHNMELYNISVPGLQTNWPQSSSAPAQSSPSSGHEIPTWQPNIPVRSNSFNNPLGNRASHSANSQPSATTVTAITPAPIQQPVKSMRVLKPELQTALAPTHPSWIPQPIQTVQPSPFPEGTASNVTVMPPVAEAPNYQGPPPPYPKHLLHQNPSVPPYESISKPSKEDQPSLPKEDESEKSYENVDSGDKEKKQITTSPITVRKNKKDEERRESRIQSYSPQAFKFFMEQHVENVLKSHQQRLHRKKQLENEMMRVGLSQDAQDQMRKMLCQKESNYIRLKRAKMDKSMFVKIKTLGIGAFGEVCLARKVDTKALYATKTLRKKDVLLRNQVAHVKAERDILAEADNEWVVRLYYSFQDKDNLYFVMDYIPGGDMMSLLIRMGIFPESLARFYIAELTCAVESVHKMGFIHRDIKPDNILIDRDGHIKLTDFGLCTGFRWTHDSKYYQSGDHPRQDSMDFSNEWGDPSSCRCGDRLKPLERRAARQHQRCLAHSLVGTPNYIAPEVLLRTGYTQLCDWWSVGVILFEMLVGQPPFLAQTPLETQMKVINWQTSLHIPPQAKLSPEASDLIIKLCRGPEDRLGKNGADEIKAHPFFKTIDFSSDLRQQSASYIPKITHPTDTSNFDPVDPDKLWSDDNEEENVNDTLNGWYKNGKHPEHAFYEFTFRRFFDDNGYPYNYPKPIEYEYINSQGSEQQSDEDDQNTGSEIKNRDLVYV
Briefly: RBC HotSpot kinase assay (33P-ATP, P81 filter-binding), LATS1. To be noted: Table 32, biochemical kinase assay; read-out: LATS1 IC50. Put shortly: (§1)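 Kinase in Hepes pH 7.5 buffer with Mg2+, EGTA, Brij35, BSA, vanadate, DTT and 1% DMSO, plus required cofactors and substrate, was preincubated 20 min at room temperature with compound. Reaction was started with 33P-ATP and run 2 h, then detected by P81 filter binding. IC50 (nM) came from 10-point singlet curves.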

Experiment [2] deals with AKT (Homo sapiens, UniProt P31749). Briefly: RBC HotSpot kinase assay (33P-ATP, P81 filter-binding), AKT. As to conditions: Table 32, biochemical kinase assay; read-out: AKT IC50. The essentials: as §1
Chain of AKT (P31749 whole entry): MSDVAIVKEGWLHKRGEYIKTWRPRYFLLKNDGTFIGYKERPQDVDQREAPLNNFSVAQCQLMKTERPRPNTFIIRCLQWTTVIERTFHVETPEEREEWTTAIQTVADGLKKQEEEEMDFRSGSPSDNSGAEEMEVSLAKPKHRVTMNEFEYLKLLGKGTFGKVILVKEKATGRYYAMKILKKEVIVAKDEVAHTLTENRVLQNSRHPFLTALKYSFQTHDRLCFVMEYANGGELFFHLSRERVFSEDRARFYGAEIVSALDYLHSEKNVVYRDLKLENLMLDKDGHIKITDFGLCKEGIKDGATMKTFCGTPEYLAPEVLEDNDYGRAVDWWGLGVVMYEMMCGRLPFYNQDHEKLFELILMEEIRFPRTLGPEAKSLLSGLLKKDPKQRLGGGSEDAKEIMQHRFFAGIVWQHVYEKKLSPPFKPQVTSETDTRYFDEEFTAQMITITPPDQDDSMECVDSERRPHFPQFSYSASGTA
The target of experiment [3] is T2, LATS2 (Homo sapiens, UniProt Q9NRM7).
T2 sequence (Q9NRM7 1-1088): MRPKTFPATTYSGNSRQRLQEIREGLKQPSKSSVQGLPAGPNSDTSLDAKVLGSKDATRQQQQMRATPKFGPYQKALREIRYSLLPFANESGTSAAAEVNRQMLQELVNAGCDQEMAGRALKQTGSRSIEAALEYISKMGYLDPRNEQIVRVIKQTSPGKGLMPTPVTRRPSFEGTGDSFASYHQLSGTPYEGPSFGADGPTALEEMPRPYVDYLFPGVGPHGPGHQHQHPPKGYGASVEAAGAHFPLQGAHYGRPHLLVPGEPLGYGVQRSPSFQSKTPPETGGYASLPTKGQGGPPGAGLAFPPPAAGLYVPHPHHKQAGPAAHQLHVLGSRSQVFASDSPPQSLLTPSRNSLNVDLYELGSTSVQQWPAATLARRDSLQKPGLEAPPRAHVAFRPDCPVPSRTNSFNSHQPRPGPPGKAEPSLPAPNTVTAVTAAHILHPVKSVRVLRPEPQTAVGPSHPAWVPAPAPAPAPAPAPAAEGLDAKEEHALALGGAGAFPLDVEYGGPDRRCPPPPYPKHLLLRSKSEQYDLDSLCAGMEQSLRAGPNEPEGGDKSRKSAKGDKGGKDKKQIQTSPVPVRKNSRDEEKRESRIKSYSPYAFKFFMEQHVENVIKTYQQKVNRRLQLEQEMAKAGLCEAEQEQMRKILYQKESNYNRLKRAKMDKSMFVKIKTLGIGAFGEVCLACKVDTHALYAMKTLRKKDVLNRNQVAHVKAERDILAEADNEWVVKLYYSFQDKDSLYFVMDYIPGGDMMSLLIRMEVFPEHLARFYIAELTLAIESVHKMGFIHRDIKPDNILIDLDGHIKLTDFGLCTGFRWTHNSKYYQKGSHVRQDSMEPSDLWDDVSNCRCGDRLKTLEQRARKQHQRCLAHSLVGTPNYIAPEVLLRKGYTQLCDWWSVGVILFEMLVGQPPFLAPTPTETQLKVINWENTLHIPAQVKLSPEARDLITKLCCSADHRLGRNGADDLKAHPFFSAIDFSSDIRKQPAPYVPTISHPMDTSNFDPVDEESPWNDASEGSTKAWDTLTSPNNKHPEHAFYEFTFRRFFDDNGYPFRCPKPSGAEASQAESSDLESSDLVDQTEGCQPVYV
Briefly: RBC HotSpot kinase assay (33P-ATP, P81 filter-binding), LATS2. As to conditions: Table 32, biochemical kinase assay; read-out: LATS2 IC50. The essentials:
as §1

Molecules are shown by their SMILES.

As for `O=C(CO)NCC(O)(c1ccc(Cl)cc1)c1ccc(-c2ccnc3[nH]ccc23)cc1` (stereo not drawn) [Compound 1015, N-(2-(4-(1H-pyrrolo[2,3-b]pyridin-4-yl)phenyl)-2-(4-chlorophenyl)-2-hydroxyethyl)-2-hydroxyacetamide], the half-maximal inhibitory concentration (IC50) in experiment [1] was 4 nM; in experiment [2] it was 5.9 nM; in experiment [3], 3.7 nM.

For `O=C(CO)NCC(O)(c1ccc(Cl)cc1)c1ccc(-c2ccnc3[nH]cc(F)c23)cc1` (stereo not drawn) [Compound 1016, N-(2-(4-chlorophenyl)-2-(4-(3-fluoro-1H-pyrrolo[2,3-b]pyridin-4-yl)phenyl)-2-hydroxyethyl)-2-hydroxyacetamide], the IC50 amounted to 7 nM in experiment [1], 7.4 nM in experiment [2] and 4 nM in experiment [3].

As to `O=C(CO)NCC(O)(c1ccc(Cl)cc1)c1ccc(-c2ccnc3[nH]cc(Cl)c23)cc1` (stereo not drawn) [Compound 1017, N-(2-(4-(3-chloro-1H-pyrrolo[2,3-b]pyridin-4-y1)phenyl)-2-(4-chlorophenyl)-2-hydroxyethyl)-2-hydroxyacetamide], the values for the half-maximal inhibitory concentration (IC50) in experiment [1], in experiment [2] and in experiment [3] were 5.4 nM, 2.8 nM and 2.8 nM, respectively.

On to `CC(C)(O)C(=O)NCC(O)(c1ccc(Cl)cc1)c1ccc(-c2ccnc3[nH]ccc23)cc1` (stereo not drawn) [Compound 1018, N-(2-(4-(1H-pyrrolo[2,3-b]pyridin-4-yl)phenyl)-2-(4-chlorophenyl)-2-hydroxyethyl)-2-hydroxy-2-methylpropanamide], for which the values for the IC50 in experiment [1], in experiment [2] and in experiment [3] were 18.7 nM, 73.6 nM and 10.1 nM, respectively.

For `CN(C)CC(=O)NCC(O)(c1ccc(Cl)cc1)c1ccc(-c2ccnc3[nH]ccc23)cc1` (stereo not drawn) [Compound 1019, N-(2-(4-(1H-pyrrolo[2,3-b]pyridin-4-yl)phenyl)-2-(4-chlorophenyl)-2-hydroxyethyl)-2-(dimethylamino) acetamide], the IC50 in experiment [1] was found to be 4 nM; in experiment [2] it was 5.4 nM; in experiment [3], 5.6 nM.

On to `NCC(=O)NCC(O)(c1ccc(Cl)cc1)c1ccc(-c2ccnc3[nH]ccc23)cc1` (stereo not drawn) [Compound 1020, N-(2-(4-(1H-pyrrolo[2,3-b]pyridin-4-yl)phenyl)-2-(4-chlorophenyl)-2-hydroxyethyl)-2-aminoacetamide], for which the half-maximal inhibitory concentration (IC50) in experiment [1] worked out at 3 nM; in experiment [2] it was 1.4 nM; in experiment [3], 2.4 nM.

For the compound `O=C(CP(=O)(O)O)NCC(O)(c1ccc(Cl)cc1)c1ccc(-c2ccnc3[nH]ccc23)cc1` (stereo not drawn) [Compound 1022, (2-((2-(4-(1H-pyrrolo[2,3-b]pyridin-4-yl)phenyl)-2-(4-chlorophenyl)-2-hydroxyethyl)amino)-2-oxoethyl) phosphonic acid], the concentration for half-maximal inhibition (IC50) was 9.6 nM in experiment [1], 3.1 nM in experiment [2] and 12 nM in experiment [3].

With `O=C(NCC(O)(c1ccc(Cl)cc1)c1ccc(-c2ccnc3[nH]ccc23)cc1)[C@@H]1CCCN1` (stereo partly drawn) [Compound 1023, (2S)—N-(2-(4-(1H-pyrrolo[2,3-b]pyridin-4-yl)phenyl)-2-(4-chlorophenyl)-2-hydroxyethyl)pyrrolidine-2-carboxamide], the half-maximal inhibitory concentration (IC50) in experiment [1] stood at 3.4 nM; in experiment [2], 9.2 nM; in experiment [3], 4.6 nM.

In the case of `O=C(NCC(O)(c1ccc(Cl)cc1)c1ccc(-c2ccnc3[nH]ccc23)cc1)[C@H]1CCCN1` (stereo partly drawn) [Compound 1024, (2R)-N-(2-(4-(1H-pyrrolo[2,3-b]pyridin-4-yl)phenyl)-2-(4-chlorophenyl)-2-hydroxyethyl)pyrrolidine-2-carboxamide], the IC50 in experiment [1] amounted to 3.7 nM; in experiment [2], 5.6 nM; in experiment [3], 2.4 nM.

As for `NCC(=O)NCC(=O)NCC(O)(c1ccc(Cl)cc1)c1ccc(-c2ccnc3[nH]ccc23)cc1` (stereo not drawn) [Compound 1025, N-(2-(4-(1H-pyrrolo[2,3-b]pyridin-4-yl)phenyl)-2-(4-chlorophenyl)-2-hydroxyethyl)-2-(2-aminoacetamido)acetamide], the values for the IC50 in experiment [1], in experiment [2] and in experiment [3] were 4.1 nM, 3.1 nM and 4.5 nM, respectively.
